# Data from patent US20230416330A1, “Optimized GIP Peptide Analogues” (Antag Therapeutics ApS, priority 2019, published 2023).
# Starred links: 1 amine or outer side, 2 acyl side, 3 side chain; linkers in the order of their positions; H or OH if unused. Non-standard residues stand in square brackets, D forms with d. Residues, ends and D or L forms follow the SMILES beside them. *: point of attachment. C16 diacid = O=C(O)CCCCCCCCCCCCCCC(=O)*; Glutaryl = O=C(CCCC(=O)[*:2])[*:1]; Aib = CC(C)(N)C(=O)O
# Tests used:
# [1] = Solubility by visual inspection of peptide solutions; assay type: physicochemical; settings: TFA
# Protocol: (§1) Peptides were either dissolved in sodium phosphate buffer (50 mM, pH 7.4, filtered) or dissolved in ultrapure (MilliQ) water (adjusted to pH 7.4 with NaOH, filtered) (see Table 3). All peptide samples were prepared to a concentration of 1, 5, 7.5 or 15 mg/ml. All samples, with the exception of reference peptides GIP(3-30), AT158, and AT482 dissolved readily and produced clear and colorless solutions with gentle mixing. Peptide samples were subsequently filtered through 0.22 μm nylon filters (Q-Max® RR syringe filter, 13 mm, Frisenette, DK) to produce particle-free solutions. All samples were added to a 96-well plate reader for the ThT assay at t=0.
# Clear visual appearance may be taken as an indicator of the immediate solubility of the peptide. […] Thus, A13Aib and/or N24E substitutions appear to increase solubility.
# [2] = Physical stability: fibril formation in Thioflavin T (ThT) assay with agitation; assay type: physicochemical; settings: for Avr lag time (h): TFA, 25° C., agitation
# Protocol: Continuous measurement of the fluorescence emission at 486 nm can be used as a measure of fibrillation behavior of peptides and proteins. The time until onset of fibrillation or fibrillation lag time is estimated here by defining the lag time (Tlag) as the point in time where the signal relative to the pre-transition baseline has reached 10% of the post-transition baseline.
# 50 mM sodium phosphate buffer for dissolving some samples was prepared in ultrapure water (Milli-Q® Reference A+ System, Merck) with a resistivity of 18.2 MΩ·cm. The buffer was adjusted to pH 7.4 and filtered.
# The ultrapure water (MilliQ) for dissolving some samples was adjusted to pH 7.4 with NaOH and filtered prior to sample preparation.
# as §1
# For each sample, […] ThT (1 mM) was added to 1.2 mL peptide solution. From this sample mixture, an amount of 200 uL/well was pipetted into four or five wells (n=4 or 5). Blank samples (buffer+ThT) were also included. One 3 mm silica bead was added to each well containing samples and the plate was subjected to orbital rotation at 300 rpm to agitate and stress the samples. The temperature was kept at 25° C. throughout the measurement.
SMILES,"Visual appearance ([1]; 1 mg/ml, Phosphate (7.4))","Avr lag time (h) ([2]; 1 mg/ml, Phosphate (7.4))","Visual appearance ([1]; 5 mg/ml, MilliQ)","Visual appearance ([1]; 5 mg/ml, Phosphate)","Avr lag time (h) ([2]; 5 mg/ml, MilliQ)","Avr lag time (h) ([2]; 5 mg/ml, Phosphate)","Fibril formation (FIG. 1) ([2]; in phosphate buffer, about 94 h, orbital rotation)"
CC[C@H](C)[C@H](NC(=O)[C@H](C)NC(=O)[C@H](Cc1ccc(O)cc1)NC(=O)[C@H](CC(=O)O)NC(=O)[C@H](CO)NC(=O)[C@@H](NC(=O)[C@H](Cc1ccccc1)NC(=O)[C@@H](NC(=O)CNC(=O)[C@@H](N)CCC(=O)O)[C@@H](C)O)[C@@H](C)CC)C(=O)N[C@@H](C)C(=O)N[C@@H](CCSC)C(=O)N[C@@H](CC(=O)O)C(=O)N[C@@H](CCCCN)C(=O)N[C@H](C(=O)N[C@@H](CCCCNC(=O)CCCCCCCCCCCCCCC(=O)O)C(=O)N[C@@H](CCC(N)=O)C(=O)N[C@@H](CCC(N)=O)C(=O)N[C@@H](CC(=O)O)C(=O)N[C@@H](Cc1ccccc1)C(=O)N[C@H](C(=O)N[C@@H](CCC(=O)O)C(=O)N[C@@H](Cc1c[nH]c2ccccc12)C(=O)N[C@@H](CC(C)C)C(=O)N[C@@H](CC(C)C)C(=O)N[C@@H](C)C(=O)N[C@@H](CCC(N)=O)C(=O)N[C@@H](CCCCN)C(=O)N1CCC[C@H]1C(=O)N[C@@H](CO)C(=O)N[C@@H](CO)C(=O)NCC(=O)N[C@@H](C)C(=O)N1CCC[C@H]1C(=O)N1CCC[C@H]1C(=O)N1CCC[C@H]1C(=O)N[C@@H](CO)C(=O)O)C(C)C)[C@@H](C)CC [AT746] (H-EGTFISDYAIAMDKIK(C16 diacid)QQDFVEWLLAQKPSSGAPPPS-OH; N-terminus assumed),Clear,fnd (Fnd = fibrils not detected within experiment time (96 hours) with agitation.),–,–,–,–,–
CC[C@H](C)[C@H](NC(=O)[C@H](CCCCN)NC(=O)[C@H](CC(=O)O)NC(=O)[C@H](CCSC)NC(=O)C(C)(C)NC(=O)[C@@H](NC(=O)[C@H](CO)NC(=O)[C@H](Cc1ccc(O)cc1)NC(=O)[C@H](CC(=O)O)NC(=O)[C@H](CO)NC(=O)[C@@H](NC(=O)[C@H](Cc1ccccc1)NC(=O)[C@@H](NC(=O)CNC(=O)CCCC(=O)O)[C@@H](C)O)[C@@H](C)CC)[C@@H](C)CC)C(=O)N[C@@H](CCCCNC(=O)CCCCCCCCCCCCCCC(=O)O)C(=O)N[C@@H](CCC(N)=O)C(=O)N[C@@H](CCC(N)=O)C(=O)N[C@@H](CC(=O)O)C(=O)N[C@@H](Cc1ccccc1)C(=O)N[C@H](C(=O)N[C@@H](CC(N)=O)C(=O)N[C@@H](Cc1c[nH]c2ccccc12)C(=O)N[C@@H](CC(C)C)C(=O)N[C@@H](CC(C)C)C(=O)N[C@@H](C)C(=O)N[C@@H](CCC(N)=O)C(=O)N[C@@H](CCCCN)C(=O)N1CCC[C@H]1C(=O)N[C@@H](CO)C(=O)N[C@@H](CO)C(=O)NCC(=O)N[C@@H](C)C(=O)N1CCC[C@H]1C(=O)N1CCC[C@H]1C(=O)N1CCC[C@H]1C(=O)N[C@@H](CO)C(=O)O)C(C)C [AT763] (Glutaryl-GTFISDYSI[Aib]MDKIK(C16 diacid)QQDFVNWLLAQKPSSGAPPPS-OH),Clear,fnd (Fnd = fibrils not detected within experiment time (96 hours) with agitation.),Clear,Clear,fnd (Fnd = fibrils not detected within experiment time (96 hours) with agitation.),fnd (Fnd = fibrils not detected within experiment time (96 hours) with agitation.),does not form fibrils
